Results reported in a compilation of properties of binary mixtures (doi:10.1021/je200600p).

Experiment: xn = mol fraction of the nth substance listed
Details: 101 kPa

CCCC[n+]1ccn(C)c1.COP(=O)([O-])OC + CCO
viscosity [mPa·s]
Details | 293.15 K | 298.15 K | 303.15 K | 308.15 K | 313.15 K | 318.15 K | 323.15 K | 328.15 K | 333.15 K
x2 = 0.201 | 396 | 284 | 210 | – | 119 | 92.7 | 73.3 | 59.06 | 48.16
x2 = 0.399 | – | – | 88.9 | 69.9 | – | – | – | – | –
x2 = 0.6 | 42.1 | 34.3 | 28.18 | 23.56 | 19.87 | 16.97 | 14.59 | 12.66 | 11.06
x2 = 0.8 | 8.84 | 7.704 | 6.718 | – | – | 4.711 | – | – | 3.454

CC[n+]1ccn(C)c1.COP(=O)([O-])OC + CCO
viscosity [mPa·s]
Details | 293.15 K | 298.15 K | 303.15 K | 308.15 K | 313.15 K | 318.15 K | 323.15 K | 328.15 K | 333.15 K
x2 = 0.199 | 190.6 | 142.7 | 109.5 | 85.8 | 68.4 | 55.53 | 45.75 | – | 32.27
x2 = 0.398 | 87.3 | – | – | 45 | 37.37 | – | 26.44 | 22.64 | 19.56
x2 = 0.598 | 27.63 | – | 19.83 | 17.05 | 14.8 | – | 11.36 | 10.04 | 8.951
x2 = 0.798 | 6.898 | 6.127 | 5.471 | – | 4.425 | 4.004 | 3.634 | 3.318 | 3.037

CCCC[n+]1ccn(C)c1.COP(=O)([O-])OC + CO
viscosity [mPa·s]
Details | 293.15 K | 298.15 K | 303.15 K | 308.15 K | 313.15 K | 318.15 K | 323.15 K | 328.15 K | 333.15 K
x2 = 0.203 | 395 | 282 | 206 | 154.4 | 117.9 | 91.5 | 72.5 | 58.3 | 47.6
x2 = 0.404 | 150.1 | 113.3 | 87.5 | – | 54.86 | – | 36.49 | 30.37 | 25.51
x2 = 0.6 | 38.6 | 31.59 | 26.19 | 21.99 | 18.59 | 15.94 | 13.78 | 11.99 | 10.48
x2 = 0.8 | – | 6.267 | 5.536 | 4.923 | – | 3.972 | 3.665 | 3.338 | 3.051

CC[n+]1ccn(C)c1.COP(=O)([O-])OC + CO
viscosity [mPa·s]
Details | 293.15 K | 298.15 K | 303.15 K | 308.15 K | 313.15 K | 318.15 K | 323.15 K | 328.15 K | 333.15 K
x2 = 0.198 | 197.6 | 147.8 | 112.7 | 88 | 70.2 | 56.83 | 46.73 | 39.02 | 32.96
x2 = 0.399 | 77.9 | 61.74 | 49.69 | 40.72 | 33.84 | 28.41 | 24.24 | – | –
x2 = 0.598 | 24.32 | – | 17.64 | 15.26 | 13.28 | 11.67 | 10.3 | 9.132 | 8.188
x2 = 0.799 | 5.308 | 4.769 | 4.309 | 3.911 | 3.566 | – | 2.998 | 2.763 | 2.555

CCCC[n+]1ccn(C)c1.COP(=O)([O-])OC + O
viscosity [mPa·s]
Details | 293.15 K | 298.15 K | 303.15 K | 308.15 K | 313.15 K | 318.15 K | 323.15 K | 328.15 K | 333.15 K
x2 = 0.201 | 594 | 410 | – | 212 | 157.5 | 119.7 | 92.7 | 73.1 | 58.55
x2 = 0.398 | 356 | – | 181.6 | 134.7 | 102 | – | 62.07 | – | 40.4
x2 = 0.601 | 148.3 | 108.5 | – | 62.54 | 48.93 | 39.05 | 31.67 | 26.05 | 21.69
x2 = 0.799 | 39.94 | 30.68 | 24.17 | 19.42 | – | 13.14 | 11.05 | 9.37 | 8.037

CC[n+]1ccn(C)c1.COP(=O)([O-])OC + O
viscosity [mPa·s]
Details | 293.15 K | 298.15 K | 303.15 K | 308.15 K | 313.15 K | 318.15 K | 323.15 K | 328.15 K | 333.15 K
x2 = 0.198 | – | – | – | 119.7 | 93 | – | 59.37 | 48.61 | –
x2 = 0.399 | 194.9 | 143.4 | 108.1 | 83.5 | 65.74 | – | 42.99 | – | 29.81
x2 = 0.6 | 98.6 | 74.5 | 57.7 | 45.45 | 36.43 | 29.68 | 24.55 | 20.58 | 17.46
x2 = 0.799 | 32.35 | 25.47 | 20.44 | 16.68 | 13.81 | – | 9.81 | 8.405 | 7.264
